# Assay results reported in ChEMBL document CHEMBL3244121, “Esters of 4-[3-[2-(trifluoromethyl)phenothiazin-10-yl]propyl]-1-piperazieneethanol and related compounds as long-acting antipsychotic agents. Synthesis of the 1-adamantoate, the first crystalline base” (1977).
# System: Rattus norvegicus
# Experiment: Antipsychotic activity in albino rat assessed as duration of inhibition of conditioned avoidance behavior at 25 mg/kg administered intramuscularly
# Assay type: functional
# Conditions: route intramuscular
row,Compound,Time [days]
1,CCCCCC(=O)OCCN1CCN(CCCN2c3ccccc3Sc3ccc(C(F)(F)F)cc32)CC1.Cl,8
2,CC(C)CCC(=O)OCCN1CCN(CCCN2c3ccccc3Sc3ccc(C(F)(F)F)cc32)CC1.Cl,8
3,CCCCCCCCCCCC(=O)OCCN1CCN(CCCN2c3ccccc3Sc3ccc(C(F)(F)F)cc32)CC1.Cl,28
4,CCCCCCCCCCCCCC(=O)OCCN1CCN(CCCN2c3ccccc3Sc3ccc(C(F)(F)F)cc32)CC1.Cl,28
5,CCCCCCCCCC(=O)OCCN1CCN(CCCN2c3ccccc3Sc3ccc(C(F)(F)F)cc32)CC1 [FLUPHENAZINE DECANOATE],12
6,CCCCCCC(=O)OCCN1CCN(CCCN2c3ccccc3Sc3ccc(C(F)(F)F)cc32)CC1 [FLUPHENAZINE ENANTHATE],28
